# Assay results: the supplement of paper PMC6045584
# ± gives the standard deviation of the averaged measurements.
# How the values were obtained:
# CRIZOTINIB = compound: C[C@@H](Oc1cc(-c2cnn(C3CCNCC3)c2)cnc1N)c1c(Cl)ccc(F)c1Cl [CRIZOTINIB]; assay: surviving fraction relative to DMSO-only wells; higher = less growth inhibition; details: exposure time: 5 days
# Outline: (§1)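 Log-phase tumour cells were seeded at 250–500 per well in 384-well plates and, from 24 hours after seeding, exposed continuously for five days to inhibitors at 0.5, 1, 5, 10, 50, 100, 500 and 1000 nM. Surviving fraction is CellTiter-Glo luminescence normalised to the median of DMSO-only wells. Luminescence was measured after 10 minutes at room temperature, and only lines screened three times with replicate Pearson r >0.7 and median Z' >0.3 were kept.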
# [1] = compound: CNCc1ccc(-c2[nH]c3cc(F)cc4c3c2CCNC4=O)cc1; assay: as above; details: exposure time: 5 days
# Outline: as §1
Test System,surviving fraction (CRIZOTINIB; 0.5 nM),surviving fraction (CRIZOTINIB; 1 nM),surviving fraction (CRIZOTINIB; 50 nM),surviving fraction (CRIZOTINIB; 100 nM),surviving fraction (CRIZOTINIB; 1000 nM),surviving fraction ([1]; 0.5 nM),surviving fraction ([1]; 1 nM),surviving fraction ([1]; 5 nM),surviving fraction ([1]; 10 nM),surviving fraction ([1]; 50 nM),surviving fraction ([1]; 100 nM),surviving fraction ([1]; 500 nM),surviving fraction ([1]; 1000 nM),surviving fraction (CRIZOTINIB; 5 nM),surviving fraction (CRIZOTINIB; 10 nM),surviving fraction (CRIZOTINIB; 500 nM)
22RV1 PROSTATE,0.993 ± 0.1,1.11 ± 0.083,1.11 ± 0.091,0.976 ± 0.16,0.459 ± 0.024,1.09 ± 0.051,1.13 ± 0.09,1.02 ± 0.075,0.968 ± 0.12,1.28 ± 0.32,1.04 ± 0.061,1.014 ± 0.0031,1.11 ± 0.24,,,
93VU HEADNECK,1.08 ± 0.14,1.09 ± 0.072,1.14 ± 0.14,1.18 ± 0.081,0.853 ± 0.038,0.958 ± 0.074,0.994 ± 0.09,1.08 ± 0.081,1.01 ± 0.028,0.892 ± 0.07,0.859 ± 0.063,0.927 ± 0.04,0.894 ± 0.036,1.08 ± 0.12,1.16 ± 0.037,
143B BONE,,,1.09 ± 0.015,,0.865 ± 0.011,1.02 ± 0.037,1.04 ± 0.011,1.07 ± 0.037,1.1 ± 0.073,1.11 ± 0.14,1.04 ± 0.046,1.07 ± 0.15,1.04 ± 0.067,1.08 ± 0.012,,
A549 LUNG,1.07 ± 0.027,1.07 ± 0.015,1.09 ± 0.023,1.1 ± 0.025,0.649 ± 0.07,1.1 ± 0.039,1.07 ± 0.03,1.057 ± 0.0071,1.06 ± 0.029,1.14 ± 0.066,1.05 ± 0.06,1.08 ± 0.027,1.08 ± 0.034,,,1.09 ± 0.043
ASKA SYNOVIAL,,0.942 ± 0.039,0.539 ± 0.043,0.405 ± 0.016,0.205 ± 0.0093,1.1 ± 0.024,1.04 ± 0.072,1.04 ± 0.07,0.987 ± 0.017,0.887 ± 0.053,0.72 ± 0.019,0.653 ± 0.1,0.585 ± 0.057,0.848 ± 0.05,0.7377 ± 0.007,0.168 ± 0.0038
BT20 BREAST,1.24 ± 0.013,1.23 ± 0.091,1.05 ± 0.067,1.08 ± 0.031,0.592 ± 0.095,1.09 ± 0.095,1.05 ± 0.055,1.03 ± 0.081,1.04 ± 0.059,0.792 ± 0.14,0.814 ± 0.046,0.815 ± 0.11,0.872 ± 0.014,1.13 ± 0.059,1.25 ± 0.05,1.13 ± 0.088
BT549 BREAST,,1.07 ± 0.056,1.05 ± 0.062,1.09 ± 0.097,0.375 ± 0.016,0.958 ± 0.011,1.01 ± 0.16,0.972 ± 0.078,1.04 ± 0.081,0.753 ± 0.13,0.818 ± 0.073,0.828 ± 0.069,0.881 ± 0.056,,1.06 ± 0.041,
C33A CERVIX,0.954 ± 0.064,0.983 ± 0.088,,,0.828 ± 0.092,0.991 ± 0.071,0.993 ± 0.078,1.02 ± 0.085,0.937 ± 0.095,1.09 ± 0.13,0.963 ± 0.041,1.25 ± 0.024,0.707 ± 0.0089,,1.04 ± 0.13,0.925 ± 0.076
CADOES1 SOFT TISSUE,,0.892 ± 0.084,0.902 ± 0.073,0.949 ± 0.077,0.314 ± 0.06,1 ± 0.21,0.975 ± 0.19,0.903 ± 0.081,0.838 ± 0.045,1.02 ± 0.068,0.856 ± 0.12,0.799 ± 0.14,0.715 ± 0.22,0.953 ± 0.13,0.91 ± 0.11,0.713 ± 0.18
CAL51 BREAST,0.981 ± 0.081,1.03 ± 0.034,1.01 ± 0.05,1.05 ± 0.046,0.213 ± 0.012,0.935 ± 0.033,0.96 ± 0.04,0.927 ± 0.023,0.848 ± 0.052,0.954 ± 0.019,0.819 ± 0.021,0.706 ± 0.035,0.604 ± 0.021,1.03 ± 0.012,1.07 ± 0.052,0.232 ± 0.024
CAL72 BONE,1.09 ± 0.13,1.09 ± 0.13,1.08 ± 0.15,1.1 ± 0.11,0.814 ± 0.17,1.09 ± 0.041,1.072 ± 0.0085,1.1 ± 0.026,1.08 ± 0.016,0.999 ± 0.073,0.961 ± 0.075,0.962 ± 0.032,0.902 ± 0.019,1.09 ± 0.12,1.11 ± 0.17,0.859 ± 0.15
CAL120 BREAST,0.969 ± 0.069,1 ± 0.076,1 ± 0.04,1.01 ± 0.049,0.685 ± 0.026,1.04 ± 0.047,0.995 ± 0.075,0.984 ± 0.044,1.01 ± 0.043,0.945 ± 0.026,0.929 ± 0.056,0.926 ± 0.057,0.918 ± 0.043,0.982 ± 0.038,,0.933 ± 0.012
CASKI CERVIX,0.955 ± 0.029,1 ± 0.067,0.999 ± 0.053,0.984 ± 0.052,0.383 ± 0.029,0.893 ± 0.022,0.968 ± 0.014,0.992 ± 0.015,0.939 ± 0.024,0.89 ± 0.03,0.898 ± 0.077,0.923 ± 0.12,0.848 ± 0.034,,1.04 ± 0.06,0.382 ± 0.063
CHLA90 AUTONOMIC GANGLIA,,1 ± 0.025,,,0.476 ± 0.096,0.97 ± 0.049,1.01 ± 0.068,0.961 ± 0.039,0.987 ± 0.043,0.993 ± 0.095,1.03 ± 0.023,1.01 ± 0.038,1.03 ± 0.033,0.951 ± 0.016,0.929 ± 0.056,0.755 ± 0.14
CME SYNOVIAL,1.23 ± 0.11,1.23 ± 0.1,1.21 ± 0.1,1.18 ± 0.022,0.286 ± 0.033,1.16 ± 0.072,1.25 ± 0.097,1.11 ± 0.18,1.11 ± 0.18,0.693 ± 0.18,0.556 ± 0.094,0.373 ± 0.08,0.301 ± 0.015,1.36 ± 0.16,,0.65 ± 0.035
COLO320DM LARGE INTESTINE,1.13 ± 0.11,1.12 ± 0.055,1.21 ± 0.051,1.12 ± 0.092,0.398 ± 0.043,1.04 ± 0.067,1.05 ± 0.021,1.12 ± 0.027,0.962 ± 0.1,0.96 ± 0.04,0.933 ± 0.12,0.933 ± 0.066,0.901 ± 0.014,1.11 ± 0.056,1.04 ± 0.092,0.622 ± 0.015
DU4475 BREAST,0.991 ± 0.16,1 ± 0.12,,,0.389 ± 0.057,1.02 ± 0.066,0.921 ± 0.1,0.969 ± 0.03,0.881 ± 0.063,0.807 ± 0.12,0.696 ± 0.053,0.612 ± 0.088,0.479 ± 0.074,,0.947 ± 0.17,0.611 ± 0.05
H23 LUNG,1.04 ± 0.058,1.02 ± 0.025,1.06 ± 0.062,1.11 ± 0.059,,1.05 ± 0.061,1.07 ± 0.066,1.05 ± 0.025,1.1 ± 0.011,1.16 ± 0.076,1.11 ± 0.043,1.14 ± 0.035,1.12 ± 0.021,1.07 ± 0.04,1.08 ± 0.02,1.11 ± 0.072
HCC78 LUNG,0.99 ± 0.11,1 ± 0.074,0.521 ± 0.021,0.522 ± 0.082,0.072 ± 0.029,1 ± 0.17,0.867 ± 0.05,1.12 ± 0.22,1.13 ± 0.2,0.828 ± 0.093,1.02 ± 0.15,0.936 ± 0.091,0.911 ± 0.043,,,0.216 ± 0.062
HCC202 BREAST,1.38 ± 0.033,,1.13 ± 0.018,1.25 ± 0.37,1.246 ± 0.0085,0.936 ± 0.073,1.2 ± 0.39,1.21 ± 0.31,1.08 ± 0.087,1.14 ± 0.21,0.78 ± 0.12,0.844 ± 0.033,0.867 ± 0.13,1.24 ± 0.47,1.05 ± 0.069,1.12 ± 0.12
HCC1395 BREAST,1.06 ± 0.18,1.28 ± 0.025,1.29 ± 0.18,1.28 ± 0.018,1.21 ± 0.061,0.901 ± 0.016,0.981 ± 0.02,1.09 ± 0.011,0.92 ± 0.058,0.873 ± 0.12,0.828 ± 0.071,0.736 ± 0.041,0.809 ± 0.028,1.33 ± 0.061,1.44 ± 0.15,1.21 ± 0.14
HCC1806 BREAST,1.02 ± 0.13,1.09 ± 0.056,1.13 ± 0.066,,0.318 ± 0.007,1.05 ± 0.074,0.879 ± 0.021,1.02 ± 0.024,1.07 ± 0.094,0.77 ± 0.076,0.74 ± 0.09,0.601 ± 0.046,0.521 ± 0.026,1.1 ± 0.065,,0.634 ± 0.036
HCC1954 BREAST,1.16 ± 0.14,1.25 ± 0.11,1.03 ± 0.18,0.987 ± 0.06,0.689 ± 0.12,0.795 ± 0.12,0.797 ± 0.11,0.947 ± 0.039,1.04 ± 0.17,0.61 ± 0.082,0.549 ± 0.019,0.557 ± 0.0088,0.464 ± 0.012,,1.55 ± 0.21,0.831 ± 0.082
